Data from US9732067B2, “Compounds and methods for activating the apoptotic arm of the unfolded protein response” (University of Kansas, priority 2012, dated 2017).
“And” between values parts separate entries of the source, which are not always exact repeats. Equal entries are not always repeated. Where two headings read alike, the source gives them in different places.

Tests used:
[1] = system: UMSCC23; assay: Proliferation, UMSCC23; assay type: cell-based; conditions: Homo sapiens, 24 hours, average of three experiments
Procedure: (§1) To determine whether ML291 could reduce the proliferation of malignant cells, a panel of OSCC (UMSCC23, A253, HN6, HN12, HN30, H460/T800) and ovarian cancer (RMG-1, TOV112D, A2780 and SKOV3) cell lines, were treated with increasing doses (0.15-20 μM) of ML291 for 24 hours (FIGS. 3A and 3B).

[2] = biological target: T1, dopamine transporter (DAT) (Homo sapiens, UniProt Q01959); assay: Radio-ligand binding panel (Ricerca), 67 GPCRs, ion channels and transporters
T1 construct: Ricerca Biosciences LLC (Bothell, Wash.)
T1 sequence (Q01959 whole entry, species assumed): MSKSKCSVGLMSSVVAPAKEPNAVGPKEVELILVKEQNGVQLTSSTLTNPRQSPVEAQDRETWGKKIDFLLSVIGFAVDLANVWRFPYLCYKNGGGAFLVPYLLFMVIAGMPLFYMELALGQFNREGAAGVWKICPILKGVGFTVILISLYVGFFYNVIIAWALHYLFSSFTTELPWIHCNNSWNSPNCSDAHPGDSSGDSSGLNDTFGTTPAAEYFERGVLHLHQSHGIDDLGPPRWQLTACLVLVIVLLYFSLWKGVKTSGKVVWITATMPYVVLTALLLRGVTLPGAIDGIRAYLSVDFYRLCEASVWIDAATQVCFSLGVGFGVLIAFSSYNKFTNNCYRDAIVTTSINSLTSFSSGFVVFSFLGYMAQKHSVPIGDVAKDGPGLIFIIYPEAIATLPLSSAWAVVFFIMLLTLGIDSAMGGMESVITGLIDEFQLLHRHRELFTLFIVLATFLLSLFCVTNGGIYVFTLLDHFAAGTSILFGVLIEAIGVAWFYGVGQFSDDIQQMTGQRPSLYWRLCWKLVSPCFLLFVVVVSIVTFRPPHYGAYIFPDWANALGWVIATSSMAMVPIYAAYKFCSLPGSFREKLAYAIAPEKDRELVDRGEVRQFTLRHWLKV
Procedure: ML291 was submitted to Ricerca Biosciences LLC (Bothell, Wash.) to evaluate it in radio-ligand binding assays to determine activity against a panel of 67 GPCRs, ion channels and transporters at 10 μM.

[3] = system: HN12; assay: Proliferation, HN12; assay type: cell-based; conditions: 24 hours, average of three experiments
Procedure: as §1

[4] = Hepatic microsome stability, mouse; assay type: in vitro ADME
From the text: The microsomal stability assay is commonly used to rank compounds according to their metabolic stability. This assay addresses the pharmacologic question of how long the parent compound will remain circulating in plasma within the body.

[5] = system: HN30; assay: Proliferation, HN30; assay type: cell-based; conditions: 24 hours, average of three experiments
Procedure: as §1

[6] = system: A253; assay: Proliferation, A253; assay type: cell-based; conditions: Homo sapiens, 24 hours, average of three experiments
Procedure: as §1

[7] = Tolerability of ML291 in mice; assay type: in vivo
[8] = Plasma protein binding, mouse; assay type: in vitro ADME
From the text: (§2) Plasma protein binding is a measure of a drug's efficiency to bind to the proteins within blood plasma. The less bound a drug is, the more efficiently it can traverse cell membranes or diffuse. Highly plasma protein bound drugs are confined to the vascular space, thereby having a relatively low volume of distribution. In contrast, drugs that remain largely unbound in plasma are generally available for distribution to other organs and tissues. ML291 was highly plasma protein bound to human plasma proteins (>99%), though it is somewhat less tightly bound to mouse plasma proteins (˜84%).

[9] = system: −/− MEF KO CHOP; assay: Proliferation / cytotoxicity (ATPLite) in MEF with CHOP KO; assay type: cell-based; conditions: Mus musculus
Procedure: (§3) Several of the analogs derived from these changes were evaluated in secondary assays as they met the preliminary probe criteria for UPR-CHOP and UPR-XBP1 activity. Select compounds were assessed in a dose response manner for the ability to suppress proliferation in both the CHOP wild-type and CHOP knockout murine embryonic fibroblasts (−/− MEF KO CHOP)(Table 2).
(§4) It was determined whether ML291 and ML291 congeners would induce cell death (cytotoxicity as measured by ATPLite®, which measures production of ATP from living cells) in cells where these pathways are operant, but not activate them in the absence of the pathways.

[10] = system: OSCC; assay: Preliminary combination studies with cisplatin and taxol; assay type: cell-based
Procedure: To confirm the ability of ML291 to activate UPR-luciferase reporters stably transfected into UMSCC23 and A253 cells and reduce tumor burden, additional xenograft studies are performed with additional animals to permit real-time measurement of UPR activation during drug treatment (bioluminescent imaging). The data presented herein indicate that ML291 can activate the UPR in xenograft tissue at 10 mg/kg. […] Thus, mice are injected IP in the morning with 10-100 mg/kg ML291. Injection in the morning, i.e., when the lights come on in the vivarium and the mice stomachs are most likely to be full, is a technique known to enhance absorption of nitrofurans into the bloodstream (Heinrichs (2001) Behavioural Brain Res. 125:81-88). […] Upon completion of this experiment, control and ML291 treated mice (3 each) undergo complete pathological necropsy to identify gross or histological signs of organ toxicity. Once the degree to which ML291 induces the UPR and reduces xenograft burden is analyzed, additional studies are carried out with combination therapies using standard of care OSCC drugs. […] It is posited that ML291-enforced UPR in the tumor milieu potentiates conventional therapies and might enhance the effects of cisplatin, ifosfamide or taxol.

[11] = Aqueous solubility in 1x PBS, pH 7.4; assay type: physicochemical; conditions: room temperature (23° C.)
Procedure: Solubility was measured in phosphate-buffered saline (PBS) at room temperature (23° C.). PBS by definition is 137 mM NaCl, 2.7 mM KCl, 10 mM sodium phosphate dibasic, 2 mM potassium phosphate monobasic and a pH of 7.4.

[12] = system: A253-CHOP-luc xenografts; assay: Bioluminescent imaging of A253-CHOP-luc xenografts; assay type: in vivo, SCID mice; conditions: 24 hours after 10 mg/kg (IP)
[13] = Plasma stability, mouse; assay type: in vitro ADME
From the text: Plasma stability is a measure of the stability of small molecules and peptides in plasma and is an important parameter, which strongly can influence the in vivo efficacy of a test compound. Drug candidates are exposed in plasma to enzymatic processes (proteinases, esterases), and they can undergo intramolecular rearrangement or bind irreversibly (covalently) to proteins. ML291 appeared to be moderately stable in human plasma (˜84% remaining), but less so in mouse plasma (˜52% remaining).

[14] = system: H460/T800; assay: Proliferation, H460/T800; assay type: cell-based; conditions: Homo sapiens, NCI-H460, 24 hours, average of three experiments
Procedure: as §1

[15] = Plasma protein binding, human; assay type: in vitro ADME
From the text: as §2

[16] = system: A2780 (ovarian); assay: Proliferation, A2780; assay type: cell-based; conditions: Homo sapiens, 24 hours
Procedure: as §1

[17] = system: MEF with wild-type CHOP; assay: Proliferation / cytotoxicity (ATPLite) in MEF with wild-type CHOP; assay type: cell-based, mouse
Procedure: as §3, §4

[18] = system: colorectal cell line DLD1(BAX−/−)(BAK−/−); assay: ML291 exposure of DLD1(BAX−/−)(BAK−/−) versus wild-type; assay type: cell-based, human; conditions: versus wild-type controls

O=C(Nc1ccc(S(=O)(=O)N2CCC(Cl)CC2)cc1)c1ccc([N+](=O)[O-])o1 [ML291, N-(4-((4-chloropiperidin-1-yl)sulfonyl)phenyl)-5-nitrofuran-2-carboxamide]
IC50 [1]: 7.31 ± 1.68 µM
inhibition at 10 µM [2]: 68%
IC50 [3]: 7.17 ± 0.69 µM
Hepatic Microsome Stability (% Remaining after 1 hour @ 37° C.) ([4]; Mouse): 0.02%
metabolism in mouse liver homogenates ([4]; within 1 hour): almost completely metabolized
IC50 [5]: 8.95 ± 1.06 µM
IC50 [6]: 17.2 ± 3.64 µM
weight, physical appearance, disposition or activity versus controls ([7]; 10 mg/kg IP daily, preliminary): no differences in weight, physical appearance, disposition or activity
side effects ([7]; 10 mg/kg bi-weekly for four weeks): did not display any obvious side effects
bound to mouse plasma proteins [8]: ~84%
fraction unbound at 1 µM ([8]; plasma, Mouse, 1 μM, read-out: Plasma Protein Binding (% Bound) (converted)): 0.155
fraction unbound at 10 µM ([8]; plasma, Mouse, 10 μM, read-out: Plasma Protein Binding (% Bound) (converted)): 0.157
EC50 ([9]; Table 2, mean of replicates, EC50 and μM, read-out: Proliferation −/− MEF KO CHOP): > 20 µM
IC50 ([9]; Table 5, MEF, ATPLite): > 20 µM
EC50 ([9]; read-out: EC50 on −/− MEF knockout cells): > 20 µM
effect of combination with cisplatin and taxol [10]: reduced IC50 values
Aqueous Solubility in 1x PBS, pH 7.4 [11]: 3.9 μg/mL and 9.4 μM
luminescence of xenografts [12]: increased luminescence
remaining in mouse plasma [13]: ~52%
Plasma Stability (% Remaining at 3 hours @ 37° C.) ([13]; Mouse): 52.31%
IC50 [14]: 18.9 ± 1.83 µM
bound to human plasma proteins [15]: > 99%
fraction unbound at 1 µM ([15]; plasma, Human, 1 μM, read-out: Plasma Protein Binding (% Bound) (converted)): 0.0025
fraction unbound at 10 µM ([15]; plasma, Human, 10 μM, read-out: Plasma Protein Binding (% Bound) (converted)): 0.0037
IC50 [16]: 2.16 µM
shift of potency in MEF wild-type CHOP versus CHO-K1 cell reporter assays [17]: ~6 fold
EC50 ([17]; Mus musculus, Table 2, mean of replicates, EC50 and μM, read-out: Proliferation MEF wt CHOP): 4.77 ± 1.05 µM
IC50 ([17]; Mus musculus, Table 5, MEF, ATPLite): 4.77 ± 1.05 µM
EC50 ([17]; Mus musculus, read-out: CHOP wild-type EC50 (MEF)): 4.77 µM
EC50 ([17]; read-out: CHOP wild-type EC50 (MEF)): ~4.8 µM
ability of BAX/BAK-deleted cells to withstand exposure [18]: significantly more able to withstand ML291 exposure than wild-type controls
